The test system of the assay is PTmAb0005. In words: Phage display ranking of peptide ligands for PTmAb0005. Conditions: for Rel. Rank A / Rel. Rank B: IgEC67-8 mutants (Table 9); for Rank (ECL) PTmAb0005: primary phage display biopannings (Table 6). The class given is binding. As for the experimental part:
Phage display libraries were used to map the binding sites of the monoclonal antibodies using three different phage libraries, displaying either the XCX15, XCX10 or XAX10 peptide sequence (where X is any amino acid) at the N-terminus of the phage gVIIIp. Tables 6 and 7 show the results of selecting for peptide ligands with the anti human IgE monoclonal antibodies […]. […]
This was performed by introducing random mutations by PCR mutagenesis and sub-cloning into the Fuse 5 vector for minor filamentous phage protein gIIIp display. These, and other results, confirmed the importance of the amino acids within IgEC67 which aligned with the Cε2 epitope. […] Mutations in other sites had little effect on the affinity to PTmAb0005.
This involved a DNA sub-cloning transfer from the major coat protein (gVIIIp) filamentous phage display vector to a lower copy number minor phage coat protein (gIIIp) display vector with a random PCR step. […] Included in the tables are ranking orders and also BIAcore affinities where available.

For “ADGAECFINKQMADRELCAREVAEA [Peptide 2-12, IgEC67-8 mutant clone]”, the “Rel. Rank A” value came out at 1.22 and the “Rel. Rank B” value was 1.50. For “ADGAECFINKQRADLELCPGEAAEA [4-2,4-3, IgEC67-8 mutant clone]”, the “Rel. Rank A” value turned out to be 1.11 and the “Rel. Rank B” value is 1.60. For “ADGAECFINRQMADLELCGREAAEA [Peptide 4-4, IgEC67-8 mutant clone]”, the “Rel. Rank A” value was 0.69 and the “Rel. Rank B” value was found to be 1.03.

Take “ADGAGCFIDKQMADLELCPRAAAEA [1-9,2-5, IgEC67-8 mutant clone]”: the “Rel. Rank A” value worked out at 1.21 and the “Rel. Rank B” value was 1.41. Turning to “ADGAGCFIEKQMADMELCQARAAEA [Peptide 1-8, IgEC67-8 mutant clone]”, the “Rel. Rank A” value is reported as 1.08 and the “Rel. Rank B” value stood at 1.32. For “ADGAGCFIEKQMADMELCQRETAEA [Peptide 1-1, IgEC67-8 mutant clone]”, the “Rel. Rank A” value was found to be 1.04 and the “Rel. Rank B” value was 1.29. The corresponding values for “ADGAGCFIKKQMADLELCPREAWEA [Peptide 4-1, IgEC67-8 mutant clone]” are 1.24 and 1.52. In the case of “ADGAGCFINKQMADLELCPARAAEA [Peptide 1-7, IgEC67-8 mutant clone]”, the “Rel. Rank A” value worked out at 0.91 and the “Rel. Rank B” value is 1.25. In the case of “ADGAGCFINKQMADLELCPREAAEA [2-8,1-13,4-11,1-14, IgEC67-8 sub-library clone]”, the “Rel. Rank A” value is recorded as 1.00 and the “Rel. Rank B” value was determined as 1.00. “ADGAGCFINKQMADLELCPREGAEA [1-4,1-2,1-12, IgEC67-8 mutant clone]”: the “Rel. Rank A” value turned out to be 1.37 and the “Rel. Rank B” value was 1.39. Regarding “ADGAGCFINKQMADLELCPRQAAEA [3-1,3-9,3-10, IgEC67-8 mutant clone]”, the “Rel. Rank A” value was 1.54 and the “Rel. Rank B” value is 1.85. Regarding “ADGAGCFINKQMADLELCPSQAAEA [Peptide 4-9, IgEC67-8 mutant clone]”, the “Rel. Rank A” value amounted to 1.38 and the “Rel. Rank B” value was 1.70. For “ADGAGCFINKQMADLELCRREAGEA [2-9,2-6, IgEC67-8 mutant clone]”, the “Rel. Rank A” value is 1.19 and the “Rel. Rank B” value turned out to be 1.54. “ADGAGCFINKQMADLELCTREAAEA [Peptide 3-11, IgEC67-8 mutant clone]”: the “Rel. Rank A” value is listed as 1.54 and the “Rel. Rank B” value was 2.02. On to “ADGAGCFINKQMADMELCPREAAEA [Peptide 2-3, IgEC67-8 mutant clone]”, for which the “Rel. Rank A” value worked out at 1.03 and the “Rel. Rank B” value turned out to be 1.31. With “ADGAGCFINKQMADSELCPAAAAEA [Peptide 1-10, IgEC67-8 mutant clone]”, the “Rel. Rank A” value worked out at 1.10 and the “Rel. Rank B” value amounted to 1.08. As for “ADGAGCFINKQMADSELCPREPAEA [Peptide 5-16, IgEC67-8 mutant clone]”, the “Rel. Rank A” value was 1.29 and the “Rel. Rank B” value came to 1.83.

With “ADGAGCFINKQMADWELCPREAAEA [Peptide 5-10, IgEC67-8 mutant clone]”, the “Rel. Rank A” value was determined as 1.05 and the “Rel. Rank B” value was 1.83. On to “ADGAGCFINKQMADWELCPREGAEA [Peptide 2-15, IgEC67-8 mutant clone]”, for which the “Rel. Rank A” value amounted to 1.44 and the “Rel. Rank B” value is on record as 1.57.

Consider “ADGAGCFINKQMSDFELCPREAGEA [Peptide 2-13, IgEC67-8 mutant clone]”, for which the “Rel. Rank A” value is listed as 1.56 and the “Rel. Rank B” value was 2.14. As to “ADGAGCFINMQMADQELCPRAAAEA [Peptide 1-3, IgEC67-8 mutant clone]”, the “Rel. Rank A” value was determined as 1.73 and the “Rel. Rank B” value is listed as 1.31. “ADGAGCFINNQMADLELCPREAAEA [Peptide 5-2, IgEC67-8 mutant clone]”: the “Rel. Rank A” value worked out at 1.04 and the “Rel. Rank B” value was found to be 1.24. With “ADGAGCFINNQMADLELCPRGGAEA [Peptide 1-11, IgEC67-8 mutant clone]”, the “Rel. Rank A” value is reported as 1.45 and the “Rel. Rank B” value amounted to 1.32. Consider “ADGAGCFINRQLADMELCSRGAAEA [2-11,2-4,2-10,2-7, IgEC67-8 mutant clone]”, for which the “Rel. Rank A” value turned out to be 0.79 and the “Rel. Rank B” value came to 1.39. The corresponding values for “ADGAGCFINRQMADPELCPREAAEA [Peptide 5-11, IgEC67-8 mutant clone]” are 1.09 and 1.97. Consider “ADGAGCFISPQLADWKRCMREAAEA [6-9,5-1,6-2,6-8,6-4]”, for which the “Rel. Rank A” value is 1.53 and the “Rel. Rank B” value is on record as 1.19. Consider “ADGAGCFKNKQMVDSELCARQAAEA [Peptide 1-16, IgEC67-8 mutant clone]”, for which the “Rel. Rank A” value is 1.14 and the “Rel. Rank B” value is 1.17.

As to “ADGAGCFQNKQMADLELCPREAAEA [Peptide 1-5, IgEC67-8 mutant clone]”, the “Rel. Rank A” value is on record as 1.13 and the “Rel. Rank B” value stood at 1.73.

For “ADGAGCFRNKQMADLELCPREAAEA [Peptide 1-6, IgEC67-8 mutant clone]”, the “Rel. Rank A” value is reported as 0.95 and the “Rel. Rank B” value came to 1.16. Take “ADGAGCSIHRQMADWERCLREGAEA [Peptide 6-10]”: the “Rel. Rank A” value was found to be 0.91 and the “Rel. Rank B” value amounted to 0.69. Regarding ADGAGCSIHTQMADWERCLREGAEA [6-12,5-8], the “Rel. Rank A” value is 0.93 and the “Rel. Rank B” value came to 0.67. On to AENDQMVDWEI [SB21/33/31], for which the “Rank (ECL) PTmAb0005” value stood at 0.

Regarding CAPGMGCWESVK [ESB13], the “Rank (ECL) PTmAb0005” value is 0.

Take CCESDIPLNELHALADP [IgEC70]: the “Rank (ECL) PTmAb0005” value was found to be 0. The same measure, in the same setting: in the case of CCEVDDFPTHHPGWTLR [ESC4] it was 0.

In the case of CCITDVPQGVMYKGSPD [ESC18], the “Rank (ECL) PTmAb0005” value was determined as 0. Same read-out and setting: in the case of CCKSDIPSPVTQFNTMK [IgEC64] it was 0; in that of CCLSDDAPTLPVRR [IgEC75], 0; in that of CCMADQELDLGHNAANA [ESC20], 0. Consider CCMSDTPDISRLPVPDS [IgEC72], for which the “Rank (ECL) PTmAb0005” value is given as 0. As to CCMTDDPMDPNSTWAIR [ESC12], the “Rank (ECL) PTmAb0005” value came out at 0. On the same count and under the same terms, the figure for CCMTDDPMYTNSTWAIR [ESC43] is 0. As to CCQRDVELVFGS [ESD38], the “Rank (ECL) PTmAb0005” value amounted to 0.

Turning to CCRADFEVGNGG [ESD15], the “Rank (ECL) PTmAb0005” value came out at 0.

In the case of CCVDDTPNSGLAMRVSK [ESC1], the “Rank (ECL) PTmAb0005” value was found to be 0. Consider CCVMDIEVRGSA [ESD14], for which the “Rank (ECL) PTmAb0005” value worked out at 0.

Turning to CCVMDLELASGF [ESD36], the “Rank (ECL) PTmAb0005” value was found to be 0.

As for CCVSDEPAGVRD [ESD6/10/40], the “Rank (ECL) PTmAb0005” value turned out to be 0. The same measure, in the same setting: in the case of CQAMDAEILNQV [ESB12] it was 0; in that of ECKVDGQLSDSPLLRNN [ESC45], 0; in that of ECRGPNMQMQDHCPTTD [IgEC9], 10.

Turning to GGWQESDIPGR [ESB32], the “Rank (ECL) PTmAb0005” value worked out at 0. Consider GQMMDTELLNR [ESB1/6etc], for which the “Rank (ECL) PTmAb0005” value was determined as 0. Same read-out and setting: in the case of HCCRIDREVSGA [ESB24] it was 0.

These data come from patent US20050214285A1, “Epitopes or mimotopes derived from the C-epsilon-3 or C-epsilon-4 domains of IgE, antagonists thereof, and their therapeutic uses” (SmithKline Beecham Biologicals, s.a. and Peptide …, priority 1999, published 2005).
